In brackets after ≈: the same amount, converted by molar mass. Several values for one entry are separate records, joined by “and”; a condition that tells them apart may be missing. Equal entries are not always repeated.
Experiments:
[1] = system: Platelet-poor plasma (PPP), fibrinogen; assay: Antithrombic assay: fibrinogen (FIB) content; type: biochemical, New Zealand white rabbits; settings: rabbit PPP, compound 100 μM, mean ± SD n = 4, blank plasma 7.23 ± 0.38
From the text: (§1) According to our previous studies, the antithrombotic activity could be estimated by measuring the prolongation of the plasma clotting time of thrombin time (TT), activated partial thromboplastin time (APTT), international normalized ratio (INR) increase in prothrombin time (PT), and reduction in fibrinogen (FIB) content.
(§2) Male New Zealand white rabbits weighing 2–2.5 kg were obtained from the experimental animal center of Nanjing University of Chinese Medicine and were approved by Animal Ethics Committee of Nanjing University of Chinese Medicine. They were kept in plastic cages at 22 ± 2 °C with free access to pellet food and water and on a 12 h light/dark cycle. Animal welfare and experimental procedures were carried out in accordance with the guide for the care and use of laboratory animals (National Research Council of USA, 1996) and related ethical regulations of Nanjing University of Chinese Medicine. Rabbits were anesthetized with pentobarbital (50 mg/kg) and blood was drawn from the common carotid artery. Blood was collected into plastic tubes with 3.8% sodium citrate (citrate/blood: 1:9, v/v) for plasma anticoagulation. Platelet-poor plasma (PPP) was separated from blood by centrifugation at 3000 rpm for 10 min.
(§3) TT, APTT, PT, and FIB were tested with commercial kits following the manufacturer’s instructions by a coagulometer (Model LG-PABER-I, Steellex Co., Beijing, China). All the compounds were dissolved in PBS with 20% DMSO, and the concentration was 100 μM. TT was determined by incubating 40 μL PPP solution for 3 min at 37 °C, followed by addition of 40 μL thrombin solution and 20 μL sample for 3 min at 37 °C. APTT was determined by incubating 10 μL sample solution and 50 μL PPP solution with 50 μL APTT-activating agent for 3 min at 37 °C, followed by the addition of 50 μL CaCl2. PT was determined by incubating 40 μL PPP solution for 3 min at 37 °C, followed by the addition of 40 μL thromboplastin agent and 20 μL sample. FIB was determined by incubating 10 μL PPP solution with 90 μL imidazole buffer for 3 min at 37 °C, followed by addition of 50 μL FIB agent and 10 μL sample solution. By measuring the prolongation of the plasma clotting time of thrombin time (TT), activated partial thromboplastin time (APTT), INR increase in prothrombin time (PT), and reduction in fibrinogen (FIB) content, the antithrombotic activity was assessed.

[2] = Aqueous solubility by UV spectrophotometry; type: physicochemical
Method: Scutellarin (1) and scutellarein (2) (300 μg) were dissolved in 25 mL CH3OH, and 3 (300 μg) was dissolved in 25 mL water. […] Each tested compound (250 μg) was ultrasound dissolved in 10 mL pure water for 1 h at 25 °C, and the solutions were stood for 30 min before centrifuging at the speed of 30,000 r/min. Absorbances of each compound were obtained by UV scanning, and the aqueous solubility of all three compounds were obtained through analysis of the standard curve.

[3] = system: Platelet-poor plasma (PPP), prothrombin time; assay: Antithrombic assay: prothrombin time (PT); type: biochemical, New Zealand white rabbits; settings: rabbit PPP, compound 100 μM, mean ± SD n = 4, blank plasma 5.03 ± 0.24
From the text: as §1, §2, §3

[4] = DPPH-radical scavenging ability assay; type: biochemical; settings: DPPH 80 μmol/L in DMSO, 30 min in the dark
Method: Antioxidants play important roles in removing free radicals, as antioxidants provide hydrogen to free radicals and prohibit the adverse reactions from destroying normal tissues. This assay was measured according to previous studies.
The following method was adopted to evaluate the 1,1-diphenyl-2-picrylhydrazyl (DPPH) scavenging property of the products: scutellarin (1), scutellarein (2), and 3 were dissolved in DMSO to result in final concentrations ranging from 16 to 250 μmol/L, and then DPPH (80 μmol/L, 100 μL) dissolved in DMSO was added in the testing samples. After incubating for 30 min in the dark, the scavenging effect was calculated according to the following equation:Scavenging effect (%) = [(1 − (A1 − A2)/A0] × 100%(1) where A0 is the absorbance of the control (without extract), A1 is the absorbance in the presence of the extract, and A2 is the absorbance without DPPH.

[5] = system: Platelet-poor plasma (PPP), thrombin time; assay: Antithrombic assay: thrombin time (TT); type: biochemical, New Zealand white rabbits; settings: rabbit PPP, compound 100 μM, mean ± SD n = 4, blank plasma 19.85 ± 1.59
From the text: as §1, §2, §3

[6] = system: Platelet-poor plasma (PPP), activated partial thromboplastin time; assay: Antithrombic assay: activated partial thromboplastin time (APTT); type: biochemical, New Zealand white rabbits; settings: rabbit PPP, compound 100 μM, mean ± SD n = 4, blank plasma 29.83 ± 3.86
From the text: as §1, §2, §3

[7] = set-up: method as in PMID 16997537; settings: cited from earlier work

Row | solubility at 1 h ([2]; 25 °C, water, thermodynamic from solid) | IC50 [4] | Solubility ([2]; 1 h) | Compound | FIB [1] | PT [3] | TT [5] | APTT [6] | FIB ([1]; listed as scutellarin (1)) | Solubility ([2]; in pure water, 25 °C, UV spectrophotometry) | PT ([3]; listed as scutellarin (1)) | aqueous solubility [7] | TT ([5]; listed as scutellarin (1)) | APTT ([6]; listed as scutellarin (1)) | FIB ([1]; listed as scutellarein (2)) | PT ([3]; listed as scutellarein (2)) | TT ([5]; listed as scutellarein (2)) | APTT ([6]; listed as scutellarein (2))
1 | 1.95 mg/mL (≈ 5320 µM) | 16.8 µM |  | O=c1cc(-c2ccc(O)cc2)oc2c(S(=O)(=O)O)c(O)c(O)c(O)c12 [compound 3, 5,6,7-Trihydroxy-2-(4-hydroxyphenyl)-4-oxo-4H-chromene-8-sulfonic acid] | 7.01 g/L and 7.01 ± 0.96 g/L | 6.33 s and 6.33 ± 1.87 s | 23.71 s and 23.71 ± 1.82 s | 30.33 s and 30.33 ± 1.06 s |  |  |  |  |  |  |  |  |  | 
2 |  | 16.1 µM | 0.00685 mg/mL (≈ 23.9 µM) | O=c1cc(-c2ccc(O)cc2)oc2cc(O)c(O)c(O)c12 [Scutellarein (2), 5,6,7-Trihydroxy-2-(4-hydroxyphenyl)-4H-chromen-4-one] | 6.91 ± 0.12 g/L | 5.93 ± 0.81 s | 24.48 ± 1.18 s | 36.12 ± 2.20 s |  |  |  |  |  |  | 6.91 g/L | 5.93 s | 24.48 s | 36.12 s

Row | Compound | solubility at 1 h ([2]; 25 °C, water, thermodynamic from solid) | IC50 [4] | Solubility ([2]; 1 h) | FIB [1] | PT [3] | TT [5] | APTT [6] | FIB ([1]; listed as scutellarin (1)) | Solubility ([2]; in pure water, 25 °C, UV spectrophotometry) | PT ([3]; listed as scutellarin (1)) | aqueous solubility [7] | TT ([5]; listed as scutellarin (1)) | APTT ([6]; listed as scutellarin (1)) | FIB ([1]; listed as scutellarein (2)) | PT ([3]; listed as scutellarein (2)) | TT ([5]; listed as scutellarein (2)) | APTT ([6]; listed as scutellarein (2))
3 | O=C(O)[C@H]1O[C@@H](Oc2cc3oc(-c4ccc(O)cc4)cc(=O)c3c(O)c2O)[C@H](O)[C@@H](O)[C@@H]1O [Scutellarin (1), 4′,5,6-trihydroxyflavone-7-glucuronide] |  | 17.9 µM |  | 6.41 ± 0.15 g/L | 6.25 ± 0.08 s | 23.25 ± 1.55 s | 33.78 ± 2.32 s | 6.41 g/L | 0.00762 mg/mL (≈ 16.5 µM) | 6.25 s | 0.0144 ± 0.00017 mg/mL (≈ 31.1 µM) | 23.25 s | 33.78 s |  |  |  | 

Source: PMC6152701, “Synthesis and Bioactivity Characterization of Scutellarein Sulfonated Derivative” (Molecules : A Journal of Synthetic Chemistry and Natural …, 2017)
